These results are taken from US10633419B2, “Immunomodulators” (BRISTOL-MYERS SQUIBB COMPANY, priority 2014, dated 2020).

Positions of bridges follow the written chain, without caps; N, C: chain ends. Non-standard residues stand in square brackets, D forms with d. Residues, ends and D or L forms follow the SMILES beside them. *: point of attachment. δOrn(Nα-Octadecanedioyl) = O=C(O)CCCCCCCCCCCCCCCCC(=O)N[C@@H](CCCN*)C(=O)O; X6 = O=C(O)CCCCCCCCCCCCCCCCC(=O)N[C@@H](CCC(=O)NCCCOCCOCCOCCCN*)C(=O)O; Trp(1-CH2COOH) = N[C@@H](Cc1cn(CC(=O)O)c2ccccc12)C(=O)O; Phe(4-F) = N[C@@H](Cc1ccc(F)cc1)C(=O)O; Hyp = O=C(O)[C@@H]1C[C@@H](O)CN1; NMeNle = CCCC[C@H](NC)C(=O)O; Pip = O=C(O)[C@@H]1CCCCN1; NMeA = CN[C@@H](C)C(=O)O; Pra = C#CC[C@H](N)C(=O)O; Dab = NCC[C@H](N)C(=O)O; Dap = NC[C@H](N)C(=O)O

For one assay, the target named is T1, PD-L1 (Homo sapiens, UniProt Q9NZQ7).
T1 construct: hPDL1(19-239)-TVMV-His; made in house; host or cells: HEK293T
T1 sequence (Q9NZQ7 with tags, fused parts or gaps): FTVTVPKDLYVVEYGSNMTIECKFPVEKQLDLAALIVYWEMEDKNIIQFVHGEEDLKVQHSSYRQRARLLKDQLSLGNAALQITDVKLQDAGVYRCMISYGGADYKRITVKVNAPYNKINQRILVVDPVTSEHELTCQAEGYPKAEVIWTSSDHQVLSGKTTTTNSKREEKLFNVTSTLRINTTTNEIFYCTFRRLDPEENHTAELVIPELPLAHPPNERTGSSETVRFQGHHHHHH
Kind of assay: PD-1/PD-L1 Homogenous Time-Resolved Fluorescence (HTRF) binding assay (PD-1-Ig/PD-L1-His). The following applies: inhibition of PD-1-Ig binding to PD-L1-TVMV-His; value given as number; read-out: HTRF IC50. A digest of the protocol: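 HTRF competition in dPBS with 0.1% BSA and 0.05% Tween-20: 20 nM PD-1-Ig added after 15 min compound pre-incubation with 10 nM PD-L1-His, then another 15 min. Signal (665/620 nm) after 30 min with APC anti-His (20 nM) and Eu anti-Ig (1 nM).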
In the case of `CCCC[C@H]1C(=O)N(C)[C@@H](CCCC)C(=O)N[C@@H](CC(C)C)C(=O)N[C@H](C(=O)NCC(=O)N[C@@H](Cc2cn(CC[C@H](NC(=O)CCCCCCCCCCCCCCCCC(=O)O)C(=O)O)nn2)C(=O)O)CSCC(=O)N[C@@H](Cc2ccc(O)cc2)C(=O)N2CCCC[C@H]2C(=O)N[C@@H](CC(N)=O)C(=O)N2CCC[C@H]2C(=O)N[C@@H](CN)C(=O)N[C@@H](CC(C)C)C(=O)N2C[C@H](O)C[C@H]2C(=O)N[C@@H](Cc2c[nH]c3ccccc23)C(=O)N[C@@H](CCN)C(=O)N[C@@H](Cc2cn(CC(=O)O)c3ccccc23)C(=O)N1C` [Example 13132], the IC50 is 3.3 nM.

Still in this assay, the particulars now being: inhibition of PD-1-Ig binding to PD-L1-TVMV-His; value given as range class; read-out: HTRF IC50.
For `CCCC[C@H]1C(=O)N(C)[C@@H](CCCC)C(=O)N[C@@H](CC(C)C)C(=O)N[C@H](C(=O)NCC(=O)N[C@@H](CC(=O)NCCCOCCOCCOCCCNC(=O)CC[C@H](NC(=O)CCCCCCCCCCCCCCCCC(=O)O)C(=O)O)C(=O)O)CSCC(=O)N[C@@H](Cc2ccc(F)cc2)C(=O)N2CCCC[C@H]2C(=O)N[C@@H](CC(=O)O)C(=O)N2CCC[C@H]2C(=O)N[C@@H](CN)C(=O)N[C@@H](CCC(=O)O)C(=O)N2C[C@H](O)C[C@H]2C(=O)N[C@@H](Cc2c[nH]c3ccccc23)C(=O)N[C@@H](CCN)C(=O)N[C@@H](Cc2cn(CC(=O)O)c3ccccc23)C(=O)N1C` [Example 11266] ({CH2CO}-[Phe(4-F)][Pip]DP[Dap]E[Hyp]W[Dab][Trp(1-CH2COOH)][NMeNle][NMeNle]LCGD(X6)-OH; thioether N-14), the IC50 lay in the range of 0.3 to 9.9 nM.
The same measure, in the same setting: the result for `C#CC[C@H](NC(=O)CNC(=O)[C@@H]1CSCC(=O)N[C@@H](Cc2ccc(O)cc2)C(=O)N(C)[C@@H](C)C(=O)N[C@@H](CC(N)=O)C(=O)N2CCC[C@H]2C(=O)N[C@@H](CN)C(=O)N[C@@H](CC(C)C)C(=O)N2C[C@H](O)C[C@H]2C(=O)N[C@@H](Cc2c[nH]c3ccccc23)C(=O)N[C@@H](CCN)C(=O)N[C@@H](Cc2cn(CC(=O)O)c3ccccc23)C(=O)N(C)[C@@H](CCCC)C(=O)N(C)[C@@H](CCCC)C(=O)N[C@@H](CC(C)C)C(=O)N1)C(=O)N[C@@H](CCC(=O)NCCCOCCOCCOCCCNC(=O)CC[C@H](NC(=O)CCCCCCCCCCCCCCCCC(=O)O)C(=O)O)C(=O)O` [Example 11267] ({CH2CO}-Y[NMeA]NP[Dap]L[Hyp]W[Dab][Trp(1-CH2COOH)][NMeNle][NMeNle]LCG[Pra]E(X6)-OH; thioether N-14) reads 10 to 99 nM; that for `CCCCCCCCCCCCCC(=O)NCc1cn(CC[C@H](NC(=O)CNC(=O)[C@@H]2CSCC(=O)N[C@@H](Cc3ccc(O)cc3)C(=O)N(C)[C@@H](C)C(=O)N[C@@H](CC(N)=O)C(=O)N3CCC[C@H]3C(=O)N[C@@H](CN)C(=O)N[C@@H](CC(C)C)C(=O)N3C[C@H](O)C[C@H]3C(=O)N[C@@H](Cc3c[nH]c4ccccc34)C(=O)N[C@@H](CO)C(=O)N[C@@H](Cc3csc4ccccc34)C(=O)N(C)[C@@H](CCCC)C(=O)N(C)[C@@H](CCCC)C(=O)N[C@@H](CCCNC(=N)N)C(=O)N2)C(N)=O)nn1` [Example 13051], 10 to 99 nM.
On the same count and under the same terms, the result for `CCCC[C@H]1C(=O)N(C)[C@@H](CCCC)C(=O)N[C@@H](CCCNC(=N)N)C(=O)N[C@H](C(=O)NCC(=O)N[C@@H](CCn2cc(CNC(=O)COCCOCCOC)nn2)C(N)=O)CSCC(=O)N[C@@H](Cc2ccc(O)cc2)C(=O)N(C)[C@@H](C)C(=O)N[C@@H](CC(N)=O)C(=O)N2CCC[C@H]2C(=O)N[C@@H](CN)C(=O)N[C@@H](CC(C)C)C(=O)N2C[C@H](O)C[C@H]2C(=O)N[C@@H](Cc2c[nH]c3ccccc23)C(=O)N[C@@H](CO)C(=O)N[C@@H](Cc2csc3ccccc23)C(=O)N1C` [Example 13052] reads 10 to 99 nM; that for `CCCC[C@H]1C(=O)N(C)[C@@H](CCCC)C(=O)N[C@@H](CC(C)C)C(=O)N[C@H](C(=O)NCC(=O)NCC(=O)N[C@@H](Cc2cn(CC[C@H](NC(=O)CCCCCCCCCCCCCCCCC(=O)O)C(=O)O)nn2)C(=O)O)CSCC(=O)N[C@@H](Cc2ccc(O)cc2)C(=O)N(C)[C@@H](C)C(=O)N[C@@H](CC(N)=O)C(=O)N2CCC[C@H]2C(=O)N[C@@H](CN)C(=O)N[C@@H](CC(C)C)C(=O)N2C[C@H](O)C[C@H]2C(=O)N[C@@H](Cc2c[nH]c3ccccc23)C(=O)N[C@@H](CCN)C(=O)N[C@@H](Cc2cn(CC(=O)O)c3ccccc23)C(=O)N1C` [Example 13122], 100 to 1600 nM.
The same measure, in the same setting: the result for `CCCC[C@H]1C(=O)N(C)[C@@H](CCCC)C(=O)N[C@@H](CCC(=O)O)C(=O)N[C@H](C(=O)NCC(=O)N[C@@H](Cc2cn(CC[C@H](NC(=O)CCCCCCCCCCCCCCCCC(=O)O)C(=O)O)nn2)C(=O)O)CSCC(=O)N[C@@H](Cc2ccc(O)cc2)C(=O)N(C)[C@@H](C)C(=O)N[C@@H](CC(N)=O)C(=O)N2CCC[C@H]2C(=O)N[C@@H](CN)C(=O)N[C@@H](CC(C)C)C(=O)N2C[C@H](O)C[C@H]2C(=O)N[C@@H](Cc2c[nH]c3ccccc23)C(=O)N[C@@H](CCN)C(=O)N[C@@H](Cc2cn(CC(=O)O)c3ccccc23)C(=O)N1C` [Example 13125] reads 10 to 99 nM.
Consider `CCCC[C@H]1C(=O)N(C)[C@@H](CCCC)C(=O)N[C@@H](CCC(=O)O)C(=O)N[C@H](C(=O)NCC(=O)N[C@@H](Cc2cn(CC[C@H](NC(=O)CCCCCCCCCCCCCCCCC(=O)O)C(=O)O)nn2)C(=O)O)CSCC(=O)N[C@@H](Cc2ccc(O)cc2)C(=O)N(C)[C@@H](C)C(=O)N[C@@H](CC(=O)O)C(=O)N2CCC[C@H]2C(=O)N[C@@H](CN)C(=O)N[C@@H](CC(C)C)C(=O)N2C[C@H](O)C[C@H]2C(=O)N[C@@H](Cc2c[nH]c3ccccc23)C(=O)N[C@@H](CCN)C(=O)N[C@@H](Cc2cn(CC(=O)O)c3ccccc23)C(=O)N1C` [Example 13126], for which the IC50 was 10 to 99 nM.
Still for that read-out and setting: then `CCCC[C@H]1C(=O)N(C)[C@@H](CCCC)C(=O)N[C@@H](CC(C)C)C(=O)N[C@H](C(=O)N[C@@H](Cc2cn(CCC(NC(=O)CCCCCCCCCCCCCCCCC(=O)O)C(=O)O)nn2)C(=O)O)CSCC(=O)N[C@@H](Cc2ccc(O)cc2)C(=O)N(C)[C@@H](C)C(=O)N[C@@H](CC(N)=O)C(=O)N2CCC[C@H]2C(=O)N[C@@H](CN)C(=O)N[C@@H](CC(C)C)C(=O)N2C[C@H](O)C[C@H]2C(=O)N[C@@H](Cc2c[nH]c3ccccc23)C(=O)N[C@@H](CCN)C(=O)N[C@@H](Cc2cn(CC(=O)O)c3ccccc23)C(=O)N1C` (some centres unmarked) [Example 13129], with 10 to 99 nM; and `CCCC[C@H]1C(=O)N(C)[C@@H](CCCC)C(=O)N[C@@H](CCC(=O)O)C(=O)N[C@H](C(=O)N[C@@H](Cc2cn(CCC(NC(=O)CCCCCCCCCCCCCCCCC(=O)O)C(=O)O)nn2)C(=O)O)CSCC(=O)N[C@@H](Cc2ccc(O)cc2)C(=O)N(C)[C@@H](C)C(=O)N[C@@H](CC(N)=O)C(=O)N2CCC[C@H]2C(=O)N[C@@H](CN)C(=O)N[C@@H](CC(C)C)C(=O)N2C[C@H](O)C[C@H]2C(=O)N[C@@H](Cc2c[nH]c3ccccc23)C(=O)N[C@@H](CCN)C(=O)N[C@@H](Cc2cn(CC(=O)O)c3ccccc23)C(=O)N1C` (some centres unmarked) [Example 13130], with 0.3 to 9.9 nM.
The same measure, in the same setting: then `CCCC[C@H]1C(=O)N(C)[C@@H](CCCC)C(=O)N[C@@H](CC(=O)O)C(=O)N[C@H](C(=O)N[C@@H](Cc2cn(CCC(NC(=O)CCCCCCCCCCCCCCCCC(=O)O)C(=O)O)nn2)C(=O)O)CSCC(=O)N[C@@H](Cc2ccc(O)cc2)C(=O)N(C)[C@@H](C)C(=O)N[C@@H](CC(N)=O)C(=O)N2CCC[C@H]2C(=O)N[C@@H](CN)C(=O)N[C@@H](CC(C)C)C(=O)N2C[C@H](O)C[C@H]2C(=O)N[C@@H](Cc2c[nH]c3ccccc23)C(=O)N[C@@H](CCN)C(=O)N[C@@H](Cc2cn(CC(=O)O)c3ccccc23)C(=O)N1C` (some centres unmarked) [Example 13131], with 10 to 99 nM; and `CCCC[C@H]1C(=O)N(C)[C@@H](CCCC)C(=O)N[C@@H](CC(C)C)C(=O)N[C@H](C(=O)NCC(=O)N[C@@H](Cc2cn(CC[C@H](NC(=O)CCCCCCCCCCCCCCCCC(=O)O)C(=O)O)nn2)C(=O)O)CSCC(=O)N[C@@H](Cc2ccc(O)cc2)C(=O)N2CCCC[C@H]2C(=O)N[C@@H](CC(N)=O)C(=O)N2CCC[C@H]2C(=O)N[C@@H](CNC)C(=O)N[C@@H](CC(C)C)C(=O)N2C[C@H](O)C[C@H]2C(=O)N[C@@H](Cc2c[nH]c3ccccc23)C(=O)N[C@@H](CCN)C(=O)N[C@@H](Cc2cn(CC(=O)O)c3ccccc23)C(=O)N1C` [Example 13133], with 0.3 to 9.9 nM.
For the molecule `CCCC[C@H]1C(=O)N(C)[C@@H](CCCC)C(=O)N[C@@H](CC(C)C)C(=O)N[C@H](C(=O)NCC(=O)N[C@@H](CC(=O)NCCC[C@H](NC(=O)CCCCCCCCCCCCCCCCC(=O)O)C(=O)O)C(=O)O)CSCC(=O)N[C@@H](Cc2ccc(O)cc2)C(=O)N2CCCC[C@H]2C(=O)N[C@@H](CC(N)=O)C(=O)N2CCC[C@H]2C(=O)N[C@@H](CN)C(=O)N[C@@H](CC(C)C)C(=O)N2C[C@H](O)C[C@H]2C(=O)N[C@@H](Cc2c[nH]c3ccccc23)C(=O)N[C@@H](CCN)C(=O)N[C@@H](Cc2cn(CC(=O)O)c3ccccc23)C(=O)N1C` [Example 13141] ({CH2CO}-Y[Pip]NP[Dap]L[Hyp]W[Dab][Trp(1-CH2COOH)][NMeNle][NMeNle]LCGD(δOrn(Nα-Octadecanedioyl))-OH; thioether N-14), the IC50 was 100 to 1600 nM.
Still for that read-out and setting: the result for `CCCC[C@H]1C(=O)N(C)[C@@H](CCCC)C(=O)N[C@@H](CC(C)C)C(=O)N[C@H](C(=O)NCC(=O)N[C@@H](CCC(=O)NCCC[C@H](NC(=O)CCCCCCCCCCCCCCCCC(=O)O)C(=O)O)C(=O)O)CSCC(=O)N[C@@H](Cc2ccc(O)cc2)C(=O)N2CCCC[C@H]2C(=O)N[C@@H](CC(N)=O)C(=O)N2CCC[C@H]2C(=O)N[C@@H](CN)C(=O)N[C@@H](CC(C)C)C(=O)N2C[C@H](O)C[C@H]2C(=O)N[C@@H](Cc2c[nH]c3ccccc23)C(=O)N[C@@H](CCN)C(=O)N[C@@H](Cc2cn(CC(=O)O)c3ccccc23)C(=O)N1C` [Example 13142] ({CH2CO}-Y[Pip]NP[Dap]L[Hyp]W[Dab][Trp(1-CH2COOH)][NMeNle][NMeNle]LCGE(δOrn(Nα-Octadecanedioyl))-OH; thioether N-14) reads 100 to 1600 nM.
